Patent publication US10604473B2, “Lipids that increase insulin sensitivity and methods of using the same” (Beth Israel Deaconess Medical Center, Inc., priority 2013, dated 2020)
Values belong to the molecule of their own block, whether it stands above or below them.

Experiments:
[1] = FAHFA biosynthesis (FA-CoA:HFA acyltransferase) assay in tissue lysates; format: biochemical; details: 9-HSA and oleoyl-CoA 10 μM, increasing doses of inhibitor
Description: After first establishing that FA-CoA:HFA acyltransferase activity was membrane-localized in liver (not shown), membrane fractions from liver or WAT tissue lysate were isolated by ultracentrifugation, then resuspended the pellets in PBS buffer and diluted to 1 mg/ml protein concentration. […] Formation of 9-OAHSA was measured by MS/MS, with which the appearance of the parent ion m/z 563 was monitored.
In light of the above results acyltransferase families that have been reported to have a membrane-bound localization and to have the ability to conjugate FA-CoA to a hydrophobic alcohol were targeted. Two of the enzymes, DGAT1 and ACAT, had selective inhibitors that were commercially available, A922500 [20] and CI976 [21], which were used to test their ability to reduce FAHFA production in the biosynthesis assay (inhibitors purchased from Tocris Bioscience).

[2] = tested on: STC-1 cells; experiment: ERK phosphorylation in STC-1 cells (immunoblot); format: cell-based; details: 15 minutes stimulation
Description: For the experiments summarized in FIG. 40, STC-1 cells were incubated with 9-PAHSA, 5-PAHSA or 9-OAHSA at the indicated concentrations. Cells were harvested and lysed and proteins were separated by SDS PAGE and transferred onto nitrocellulose filters. The phosphorylation of ERK and the amount of total ERK was determined by immunoblotting with antibodies specific for total or phosphor-ERK. DMSO was the control. For ERK phosphorylation, cells were serum deprived overnight and stimulated with FAHFAs or vehicle as indicated for 15 minutes followed by lysis in RIPA buffer and analysis by SDS-PAGE

[3] = tested on: STC-1 cells; experiment: GLP-1 secretion from STC-1 enteroendocrine cells (ELISA); format: cell-based
Description: For the experiments summarized in FIG. 41 STC-1 cells were incubated with vehicle (DMSO), 9-PAHSA, 5-PAHSA or 9-OAHSA at the indicated concentrations or lineolic acid (100 uM) as a positive control. Media was harvested and GLP-1 was measured by ELISA.
For the experiments summarized in FIG. 42, the same protocol as described for FIG. 41 was used, except in this experiment a time course was performed. For both FIG. 41 and FIG. 42, for GLP-1 secretion STC1 cells were washed 3× with serum free culture media followed by stimulation with FAHFAs or vehicle at the indicated concentrations and timepoints. Levels of active GLP-1 were measured by ELISA.

[4] = tested on: 3T3-L1 adipocytes; experiment: Glucose transport in 3T3-L1 adipocytes; format: cell-based; details: chronic treatment
Description: FIGS. 54A-D show glucose uptake regulation by PAHSAs and Glut4 translocation via GPR120. FIG. 54A is a bar graph showing insulin-stimulated glucose transport in 3T3-L1 adipocytes treated 9-PAHSA (20 μM) or vehicle (DMSO) control for 6 days. n=6 per group, *p<0.05 compared to vehicle by t-test. FIG. 54B is a bar graph showing insulin (10 nM)-stimulated glucose transport in 3T3-L1 adipocytes transfected with control siRNA or GPR120 siRNA and treated 5-PAHSA (10 μM), 9-PAHSA (10 μM) or vehicle (DMSO) control for 2 days. n=3 per group, *p<0.05 compared to DMSO+control siRNA or GPR120 siRNA alone, $p<0.05 compared to control siRNA or GPR120 siRNA+insulin and GPR120 siRNA+insulin+PAHSA by t-test. FIG. 54C is a panel showing Glut4 plasma membrane translocation in 3T3-L1 adipocytes transfected with control siRNA or GPR120 siRNA and treated with 9-PAHSA in the presence or absence of insulin. 6 separate experiments were carried out without RNAi and 3 experiments with RNAi; each experiment had greater than 50 cells per experimental condition. FIG. 54D is a bar graph showing quantification of Glut4 translocation in panel C. *p<0.05 compared to control siRNA+insulin and GPR120 siRNA+insulin+9-PAHSA by t-test. All data are presented as mean±s.e.m. See also FIG. 57.
For all cell culture experiments, FAHFAs were solubilized in DMSO at a concentration of 20 mM and further diluted in assay buffer or cell culture media to the working concentrations indicated for each assay. In all instances an equivalent volume of vehicle (DMSO) was added to control treatment groups.

[5] = FAHFA hydrolysis assay, pancreas membrane lysate; format: biochemical
[6] = tested on: carboxyl ester lipase (CEL); experiment: FAHFA hydrolysis assay, CEL-transfected HEK293T cell lysate; format: biochemical
[7] = FAHFA hydrolysis assay (9-PAHSA to 9-HSA), liver lysate

9-OAHSA levels (FAHFA production) [1]: no change in 9-OAHSA levels
SMILES: CCCCCCCCCCC(C)(C)C(=O)Nc1c(OC)cc(OC)cc1OC [CI976]

SMILES: CCCCCCCC/C=C\CCCCCCCC(=O)OC(CCCCCCCCC)CCCCCCCC(=O)O (stereo not drawn) [9-OAHSA]
ERK phosphorylation [2]: induce ERK phosphorylation
GLP-1 secretion [3]: induce GLP-1 secretion

9-OAHSA levels (FAHFA production) [1]: no change in 9-OAHSA levels
SMILES: O=C(Nc1ccccc1)Nc1ccc(-c2ccc(C(=O)[C@@H]3CCC[C@H]3C(=O)O)cc2)cc1 [A922500]

SMILES: CCCCCCCCCCCCCCCC(=O)O [palmitic acid]
insulin-stimulated glucose transport [4]: impaired insulin-stimulated glucose transport

SMILES: CCCCCCCCC(O)CCCCCCCCC(=O)O (stereo not drawn) [hydroxystearic acid]
insulin-stimulated glucose transport [4]: impaired insulin-stimulated glucose transport

SMILES: C[C@H](CCC(=O)NCCS(=O)(=O)O)[C@H]1CC[C@H]2[C@@H]3[C@H](O)C[C@@H]4C[C@H](O)CC[C@]4(C)[C@H]3C[C@H](O)[C@]12C [NaTC, sodium taurocholate]
bile-salt activation of FAHFA hydrolysis [5]: markedly increased
bile-salt activation of FAHFA hydrolysis [6]: enhanced
bile-salt activation of FAHFA hydrolysis [7]: not enhanced
